PubChem BioAssay (NCI)
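Results reflect a 48-hour exposure of cells in 96-well plates to compound at five concentrations. Here, GI50 denotes the concentration required for 50% inhibition of growth. Definition used: TGI = concentration required for complete inhibition of growth.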

Key:
Experiment in all cases: NCI anticancer screen, dose series, 48 h
EKVX NSCLC = test system: EKVX NSCLC
HCT-116 colon = test system: HCT-116 colon
HCT-15 colon = test system: HCT-15 colon
HOP-92 NSCLC = test system: HOP-92 NSCLC
K-562 leukemia = test system: K-562 leukemia
NCI-H226 lung = test system: NCI-H226 lung
SK-OV-3 ovarian = test system: SK-OV-3 ovarian
U251 CNS = test system: U251 CNS
UACC-257 melanoma = test system: UACC-257 melanoma
HS 578T breast = test system: HS 578T breast

Row | SMILES | TGI (EKVX NSCLC) [µM] | TGI (HCT-116 colon) [µM] | TGI (HCT-15 colon) [µM] | TGI (HOP-92 NSCLC) [µM] | TGI (K-562 leukemia) [µM] | TGI (NCI-H226 lung) [µM] | TGI (SK-OV-3 ovarian) [µM] | TGI (U251 CNS) [µM] | TGI (UACC-257 melanoma) [µM] | GI50 (HCT-116 colon) [nM] | GI50 (HCT-15 colon) [µM] | GI50 (HOP-92 NSCLC) [µM] | GI50 (HS 578T breast) [nM] | TGI (HS 578T breast) [µM] | GI50 (K-562 leukemia) [nM] | GI50 (NCI-H226 lung) [µM] | GI50 (SK-OV-3 ovarian) [µM] | GI50 (U251 CNS) [nM] | GI50 (UACC-257 melanoma) [µM] | GI50 (EKVX NSCLC) [µM]
1 | O=C(CCc1cc(-c2ccco2)n(-c2ccc([N+](=O)[O-])cc2[N+](=O)[O-])n1)Nc1ccccc1 | > 100 | > 100 | > 100 | > 100 | > 100 | > 100 | > 100 | > 100 | > 100 | – | – | – | – | – | – | – | – | – | – | –
2 | COC(=O)c1cc(O)ccc1NC(=O)c1ccc(O)cc1 | > 100 | > 100 | > 100 | > 100 | > 100 | > 100 | > 100 | > 100 | > 100 | – | – | – | – | – | – | – | – | – | – | –
3 | O=C(Nc1cccc(-n2cc(-c3ccncc3)c(-c3ccc(O)c(Cl)c3)n2)c1)Nc1ccc(Cl)c(C(F)(F)F)c1 | – | 8.21 | 10.9 | 2.93 | 9.79 | 4.46 | 9.82 | 8.02 | 4.39 | 2400 | 2.58 | 0.455 | 1300 | 6.24 | 2440 | 2.02 | 3.14 | 1700 | 1.98 | –
4 | N=C(N)c1ccc(-c2ccc(-c3ccco3)o2)cc1F | – | 3.49 | 4.81 | 2.98 | 3.82 | 13.6 | 11.5 | 3.55 | 3.08 | 1690 | 2.02 | 0.968 | 1530 | 4.7 | 1580 | 2.61 | 3.2 | 1720 | 1.59 | –
5 | Cc1ccccc1C(C#N)/C(=N/NC(=O)C(=O)NN)C(=O)Nc1cccc(C(F)(F)F)c1 (stereo not drawn) | > 100 | > 100 | > 100 | > 100 | > 100 | > 100 | – | > 100 | > 100 | – | – | – | – | – | – | – | – | – | – | –
6 | [O-][N+]1=C(c2ccccc2)COc2ccccc21 | – | > 100 | > 100 | > 100 | > 100 | > 100 | > 100 | > 100 | > 100 | – | – | – | – | – | – | – | – | – | – | –
7 | CCOCC[P+](c1ccccc1)(c1ccccc1)c1ccccc1 | – | > 100 | > 100 | – | > 100 | > 100 | 79.8 | 92.5 | 49.6 | 14700 | 73.8 | – | 21700 | 99.5 | 14900 | 17.8 | 20.1 | 18100 | 6.86 | –
8 | O=c1[nH]c(C2CCCCC2)nc2cc(Cl)ccc12 | > 100 | > 100 | > 100 | 94.3 | > 100 | > 100 | > 100 | > 100 | > 100 | – | – | – | – | – | – | – | – | – | – | –
9 | COC(=O)/C(Cl)=C1/CC1COCc1ccccc1 (stereo not drawn) | > 10 | – | 35.8 | 50.4 | 49.9 | 81.9 | > 100 | – | > 100 | – | – | – | – | – | – | – | – | – | – | –
10 | C/C(CN1C(=O)c2ccccc2C1=O)=N\NS(C)(=O)=O | > 100 | > 100 | > 100 | – | > 100 | > 100 | > 100 | > 100 | > 100 | – | – | – | – | – | – | – | – | – | – | –
11 | Cn1cc(C2=C(c3cccc(NCC(O)CO)c3)C(=O)NC2=O)c2cc(Cl)ccc21 (stereo not drawn) | – | > 25 | > 25 | 14.1 | > 25 | 11.9 | > 23 | 13.7 | 15.4 | 2400 | 5.97 | 8.16 | 214 | 5.77 | 2190 | 3.34 | 4.78 | 2330 | 5.51 | –
12 | COC(=O)C1CCc2nnc(-c3cccnc3)n21 (stereo not drawn) | > 100 | > 100 | > 100 | – | > 100 | > 100 | > 100 | > 100 | > 100 | – | – | – | – | – | – | – | – | – | – | –
13 | O=C(Nc1cc(Cl)cc(Cl)c1)c1ccc(NC2=C(Cl)C(=O)N(Cc3ccccc3)C2=O)cc1 | 28.7 | 3.76 | 19.7 | – | 6.93 | 25.1 | 73.7 | 12.8 | 27.1 | 743 | 4.68 | – | 1990 | 5.49 | 2310 | 11.5 | 22 | 3040 | 11.5 | 13.9
14 | Clc1cccc(Cc2cn3cc(-c4ccccc4)nc3s2)c1 | – | > 100 | – | 34.3 | > 100 | > 100 | > 100 | 81.2 | > 100 | 9360 | – | 11.5 | 13400 | > 100 | 591 | 49.2 | 39.6 | 9180 | 10.3 | –
15 | C/C(CC(=O)Nc1ccc([N+](=O)[O-])cc1)=N/N=C(N)N | > 100 | > 100 | – | > 100 | > 100 | > 100 | > 100 | > 100 | > 100 | – | – | – | – | – | – | – | – | – | – | –
16 | O=C1CSc2ccncc2N1 | > 100 | > 100 | > 100 | – | > 100 | > 100 | – | > 100 | > 100 | – | – | – | – | – | – | – | – | – | – | –
17 | Cc1ccc(S(=O)(=O)NC(=O)Nc2nc(Cl)cc(Cl)n2)cc1 | > 100 | > 100 | – | > 100 | > 100 | > 100 | > 100 | > 100 | > 100 | – | – | – | – | – | – | – | – | – | – | –
18 | Cn1c(-c2ccccc2)c/c(=N\NS(C)(=O)=O)c2cc(S(=O)(=O)O)ccc21 | > 100 | > 100 | > 100 | > 100 | > 100 | > 100 | > 100 | > 100 | > 100 | – | – | – | – | – | – | – | – | – | – | –
19 | O=[N+]([O-])c1ccc(C2N3CCCCC3[C@@H]3c4[nH]c5ccccc5c4CCN23)cc1 (stereo partly drawn) | > 100 | 19.7 | 59.1 | > 100 | > 100 | – | > 100 | 58.1 | 41.2 | – | – | – | – | – | – | – | – | – | – | –
20 | CC(C)(C)C1CCN(C(=O)c2ccccc2)CC1 | > 100 | > 100 | > 100 | – | > 100 | > 100 | > 100 | > 100 | > 100 | – | – | – | – | – | – | – | – | – | – | –
